Assay [1] deals with T1, Substance-K receptor (Cavia porcellus) (UniProt Q64077).
T1 sequence (whole entry): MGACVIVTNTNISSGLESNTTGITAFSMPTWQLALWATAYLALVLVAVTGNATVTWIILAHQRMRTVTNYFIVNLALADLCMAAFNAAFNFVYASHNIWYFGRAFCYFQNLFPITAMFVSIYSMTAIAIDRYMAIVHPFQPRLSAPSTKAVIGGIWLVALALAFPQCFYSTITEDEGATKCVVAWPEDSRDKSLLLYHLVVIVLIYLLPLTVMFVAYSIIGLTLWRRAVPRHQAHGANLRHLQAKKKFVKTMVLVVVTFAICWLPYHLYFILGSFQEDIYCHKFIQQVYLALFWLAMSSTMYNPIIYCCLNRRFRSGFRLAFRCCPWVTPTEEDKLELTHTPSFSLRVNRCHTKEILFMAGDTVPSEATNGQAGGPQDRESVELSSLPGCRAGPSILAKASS
Nature of the assay: Inhibition of [beta-Ala]NKA(4-10)-induced contraction of isolated guinea pig trachea. The assay is classed as functional, tissue-based.

In the next assay the target is T2, Substance-K receptor (Homo sapiens, UniProt P21452).
T2 sequence (P21452 whole entry): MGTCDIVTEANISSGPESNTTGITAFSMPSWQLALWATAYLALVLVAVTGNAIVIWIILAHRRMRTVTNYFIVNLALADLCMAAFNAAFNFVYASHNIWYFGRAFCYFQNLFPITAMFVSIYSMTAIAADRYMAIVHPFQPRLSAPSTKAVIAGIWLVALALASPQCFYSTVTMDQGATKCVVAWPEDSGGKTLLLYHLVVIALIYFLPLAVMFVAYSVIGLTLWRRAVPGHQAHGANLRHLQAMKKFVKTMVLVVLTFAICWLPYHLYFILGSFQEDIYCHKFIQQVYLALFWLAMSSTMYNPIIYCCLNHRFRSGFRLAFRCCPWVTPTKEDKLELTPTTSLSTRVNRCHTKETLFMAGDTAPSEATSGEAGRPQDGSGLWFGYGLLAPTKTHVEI
The experiment in a line: Displacement of [3H]- NKA from human NK-2 receptor expressed in MEL cells. Type of assay: cell-based. (Displacement assays read how much labelled ligand stays bound in the presence of the test substance.)

Assay [2] deals with Cavia porcellus. The experiment in a line: Compound was administered perorally and evaluated for oral activity in neurokinin A-induced guinea pig dyspnea model. Type of assay: functional.
Assay [3] has as its system Cavia porcellus. The experiment in a line: Compound was administered intravenously and evaluated for activity against neurokinin A-induced guinea pig dyspnea model. Type of assay: functional. The conditions noted are these: iv.
Assay [4] deals with Cavia porcellus. The experiment in a line: Compound was administered perorally and evaluated for oral activity in neurokinin A-induced guinea pig dyspnea model at 5 umol/Kg dose. The assay is classed as functional.
Assay [5] has as its system Cavia porcellus. The experiment in a line: Compound was administered perorally (po) and evaluated for oral activity in neurokinin A-induced guinea pig dyspnea model at 5 umol/kg dose. The assay is classed as functional.

In general, pKB refers to −log10 of the KB, conventionally taken in molar units. A higher pKB goes with a small KB. In turn, `CC(=O)NC1(c2ccccc2)CCN(CCC(CN(C)C(=O)c2ccccc2)c2ccc(Cl)c(Cl)c2)CC1` (stereo in doubt; 1) [listing 1 of 2 here] gave a pKB in assay [1] of 9.1.
One may read the Ki as the equilibrium dissociation constant of an inhibitor or competing ligand from its target. Low readings indicate a stronger hold on the target, high ones a looser hold on the target. For orientation: ED50 means the dose that gives a 50% effect, or the effect in half of the subjects. Lower therefore signals an effect at a small dose. On Substance-K receptor, `CCCC(O)(CCC)C1CCN(CCC(CN(C)C(=O)c2ccccc2)c2ccc(Cl)c(Cl)c2)CC1` (stereo unspecified) registered a Ki of 4.7 nM. The results for the ED50 in the assay on Cavia porcellus [2] and with Cavia porcellus [3] were 1.4 µmol/kg and 0.54 µmol/kg, respectively. In assay [1], this molecule came in with a pKB of 8.4.
With `CC(=O)NC1(c2ccccc2)CCN(CCC(CN(C)C(=O)c2ccccc2)c2ccc(Cl)c(Cl)c2)CC1` (stereo in doubt; 2) [listing 1 of 2 here], the pKB in assay [1] came to 9.2.
Usually inhibition in vivo stands for the share of the control response that was lost under treatment. In the case of `CN(CC(CCN1CCC(CCO)CC1)c1ccc(Cl)c(Cl)c1)C(=O)c1ccccc1` (stereo unspecified), the inhibition in vivo at 5 µmol/kg in the assay with Cavia porcellus [4] worked out at 7%. In addition, on Substance-K receptor, affinity was put at a Ki of 47 nM. In addition, the pKB in assay [1] is 8.3.
On Substance-K receptor, `CC(=O)NCCC1CCN(CCC(CN(C)C(=O)c2ccccc2)c2ccc(Cl)c(Cl)c2)CC1` (stereo unspecified) showed a Ki of 66 nM. This molecule returned a pKB in assay [1] of 7.9.
Molecule `CCC(=NO)C1CCN(CCC(CN(C)C(=O)c2ccccc2)c2ccc(Cl)c(Cl)c2)CC1` (stereo unspecified) registered a Ki on Substance-K receptor of 2.7 nM. In addition, the negative logarithm of the KB (pKB) in assay [1] is 9.1.
The like results for `CC/C(=N/O)C1CCN(CCC(CN(C)C(=O)c2ccccc2)c2ccc(Cl)c(Cl)c2)CC1` (stereo unspecified) were, in that order, 2.1 nM and 8.8.
Turning to `CC(=O)NC1(c2ccccc2)CCN(CCC(CN(C)C(=O)c2ccccc2)c2ccc(Cl)c(Cl)c2)CC1` (stereo in doubt; 2) [listing 2 of 2 here], the affinity on Substance-K receptor, expressed as Ki, was 1.75 nM. That is a single-digit nanomolar value.
In the assay with Cavia porcellus [4], `CN(CC(CCN1CCC(CO)CC1)c1ccc(Cl)c(Cl)c1)C(=O)c1ccccc1` (stereo unspecified) came in with an inhibition in vivo at 5 µmol/kg of 13%. On Substance-K receptor, this molecule displayed a Ki of 142 nM. Moreover, in assay [1], the pKB was 8.
At Substance-K receptor, `CC(O)C1CCN(CCC(CN(C)C(=O)c2ccccc2)c2ccc(Cl)c(Cl)c2)CC1` (stereo unspecified) yielded a Ki of 33.5 nM. Also, the pKB in assay [1] came out at 7.8.
Regarding `CCC(O)C1CCN(CCC(CN(C)C(=O)c2ccccc2)c2ccc(Cl)c(Cl)c2)CC1` (stereo unspecified), at Substance-K receptor, the inhibition constant (Ki) was determined as 13.1 nM. The pKB in assay [1] amounted to 7.9.
Take `CCCC1CCN(CCC(CN(C)C(=O)c2ccccc2)c2ccc(Cl)c(Cl)c2)CC1` (stereo unspecified): the Ki on Substance-K receptor came to 9.9 nM. The molecule also displayed a pKB in assay [1] of 7.5.
In turn, `CCC(O)(CC)C1CCN(CC[C@H](CN(C)C(=O)c2ccccc2)c2ccc(Cl)c(Cl)c2)CC1` gave a Ki on Substance-K receptor of 0.84 nM. Further, the ED50 with Cavia porcellus [2] came out at 3.49 µmol/kg; with Cavia porcellus [3] it was 0.4 µmol/kg. In assay [1], this molecule yielded a pKB of 8.1.
As to `CC(=O)NC1(c2ccccc2)CCN(CCC(CN(C)C(=O)c2ccccc2)c2ccc(Cl)c(Cl)c2)CC1` (stereo in doubt; 1) [listing 2 of 2 here], affinity on Substance-K receptor was put at a Ki of 0.6 nM. For the same molecule, the 50% effect level in the assay on Cavia porcellus [2] (ED50) was put at a dose of 1.97 µmol/kg.
At Substance-K receptor, `CCCC(O)C1CCN(CCC(CN(C)C(=O)c2ccccc2)c2ccc(Cl)c(Cl)c2)CC1` (stereo unspecified) came in with a Ki of 3.7 nM. The same molecule returned a pKB in assay [1] of 7.5.
Turning to `CC/C(=N\O)C1CCN(CCC(CN(C)C(=O)c2ccccc2)c2ccc(Cl)c(Cl)c2)CC1` (stereo unspecified), at Substance-K receptor, the Ki amounted to 1.3 nM. Besides, the pKB in assay [1] amounted to 8.8. Also, the inhibition in vivo at 5 µmol/kg with Cavia porcellus [5] worked out at 20%.
Turning to `CC(=O)OCCC1CCN(CCC(CN(C)C(=O)c2ccccc2)c2ccc(Cl)c(Cl)c2)CC1` (stereo unspecified), the pKB in assay [1] stood at 7.8.
As for `CCC(O)(CC)C1CCN(CCC(CN(C)C(=O)c2ccccc2)c2ccc(Cl)c(Cl)c2)CC1` (stereo unspecified), on Substance-K receptor, the inhibitory constant (Ki) was found to be 3.5 nM. Also, the pKB in assay [1] stood at 8.8. The inhibition in vivo at 5 µmol/kg in the assay on Cavia porcellus [5] amounted to 63%.
Consider `CN(CC(CCN1CCC(C(C)(C)O)CC1)c1ccc(Cl)c(Cl)c1)C(=O)c1ccccc1` (stereo unspecified), for which the Ki on Substance-K receptor turned out to be 7.7 nM. In assay [1], this molecule came in with a pKB of 7.5.
The like results for `CC/C(=N\OC)C1CCN(CCC(CN(C)C(=O)c2ccccc2)c2ccc(Cl)c(Cl)c2)CC1` (stereo unspecified) were, in that order, 6.5 nM and 7.6.
The like results for `CCC(=O)C1CCN(CCC(CN(C)C(=O)c2ccccc2)c2ccc(Cl)c(Cl)c2)CC1` (stereo unspecified) were, in that order, 9.2 nM and 8.6.
